For series [1], the system named is human esophageal cancer cells (TE11 line). Description: Antitumor effect on human esophageal cancer cells, cell count after transfection. To be noted: 10 pmol/well, FIG. 12. The class given is cell-based. The protocol: (§1) A cell suspension prepared by suspending human pancreatic cancer cells (Bxpc3 line) in D-MEM medium (containing 10% by volume FBS) was seeded in each well of a 24-well plate at 3×10^3 cells/well, followed by culture at 37° C. overnight. Thereafter, according to the lipofectamin 2000 protocol, each miRNA was transfected at 10 pmol/well, and 48 hours later, the cells were counted. In addition, tests were also conducted under the same condition on a case where the miRNA was not introduced (untreated group), a case where hsa-miR-34a (SEQ ID NO: 8) was used (positive control) in place of the miRNA, and a case where a control miRNA (SEQ ID NO: 9) was used (control miRNA, negative control) in place of the selected miRNA.
As to hsa-miR-136-5p, hsa-miR-3065-3p, hsa-miR-4727-5p, hsa-miR-378g and hsa-miR-181a-5p, evaluation was performed of the antitumor effect on human esophageal cancer cells. The specific test method is the same as that for Test Example 4 except that human esophageal cancer cells (TE11 line) were used as cancer cells, and that the cells were counted 72 hours after transfection.

Series [2] concerns cancer stem cell population (ZsGreen+) established from pancreatic cancer cell line Panc-1. Description: Screening of miRNAs: cell count (cell viability) of the cancer stem cell population after transfection. The class given is cell-based, human. The note with it: miRNA 10 pmol/well, lipofectamin 2000, cells counted 48 and 72 hours later, FIG. 4. An excerpt:
A cancer stem cell line was established by transducing a pancreatic cancer cell line (Panc-1) with an ODC (Ornithine Decarboxylase)-Degron system capable of visualizing low metabolism that is a property of cancer stem cells using a retrovirus vector (FIG. 1a). The base sequence coding the used ODC-Degron is as set forth in SEQ ID NO: 10. Usually, cancer stem cells are so 26s proteasome hypometabolic that they cannot degrade the introduced fluorescently labeled Ornithine Decarboxylase Degron, and thus the fluorescent protein sufficiently accumulates to provide visualization.
However, even when the ODC-degron system was introduced into the pancreatic cancer cell line Panc-1, only about 0.06% cells emitting fluorescence (green) were obtained in total. With such a small number of cancer stem cells, a series of experiments including drug screening cannot be performed. Accordingly, further enrichment of cancer stem cells provided a cancer stem cell population in which cells having observed fluorescent coloring (i.e., cancer stem cells) accounted for about 81.18% in total (FIG. 1b). The obtained cancer stem cell population was designated as ZsGreen+.
A cell suspension prepared by suspending the cancer stem cell population (ZsGreen+) in a medium (DMEM medium containing 10% by volume FBS) was seeded in each well of a 24-well plate at a density of 5000 to 10000 cells/well, followed by culture at 37° C. overnight. Thereafter, according to the lipofectamin 2000 protocol, each miRNA was transfected at 10 pmol/well, and 48 hours and 72 hours later, the cells were counted. In addition, tests were also conducted under the same condition on a case where the miRNA was not introduced (untreated group, control), a case where has-miR-34a (SEQ ID NO: 8) was used (positive control) in place of the selected miRNA, and a case where a control miRNA (SEQ ID NO: 9) was used (NC1, negative control) in place of the selected miRNA. In addition, for comparison, the non-cancer stem cell population (ZsGreen−) was used in place of the cancer stem cell population (ZsGreen+) to conduct tests under the same condition.
The ratio of the number of cells under each condition to the number of control cells into which the miRNA was not introduced (cell viability, %) was determined.

In series [3] the test system is human pancreatic cancer cells (Bxpc3 line). Description: Antitumor effect on human pancreatic cancer cells (1), cell count after transfection. Type of series: cell-based. To be noted: 10 pmol/well, FIG. 8. The protocol: as §1
Series [4] relates to human gastric cancer cells (AGS line). Description: Antitumor effect on human gastric cancer cells, cell count after transfection. To be noted: 10 pmol/well, 48 hours, FIG. 10. Type of series: cell-based. The protocol: as §1
As to hsa-miR-136-5p, hsa-miR-3065-3p and hsa-miR-181a-5p, evaluation was performed of the antitumor effect on human gastric cancer cells. The specific test method is the same as that for Test Example 4 except that human gastric cancer cells (AGS line) were used as cancer cells.

Series [5] concerns human large bowel cancer cells (DLD1 line). Description: Antitumor effect on human large bowel cancer cells, cell count after transfection. Type of series: cell-based. To be noted: 10 pmol/well, FIG. 11. The protocol: as §1
As to hsa-miR-136-5p, hsa-miR-3065-3p, hsa-miR-4727-5p, hsa-miR-378g, hsa-miR-181a-5p, hsa-miR-362-5p and hsa-miR-608, evaluation was performed of the antitumor effect on human large bowel cancer cells. The specific test method is the same as that for Test Example 4 except that human large bowel cancer cells (DLD1 line) were used as cancer cells, and that the cells were counted 72 hours after transfection.

In series [6] the test system is solid tumor from the cancer stem cell population (ZsGreen+). Description: Mouse subcutaneous solid tumor model test. Type of series: in vivo, BALB/cA nude mice. The note with it: carbonate apatite nanoparticles containing the miRNA, 40 μg/dose, tail vein i.v., days 0-19; tumor excised on the 24th day. The protocol:
In 100 ml of distilled water, 0.37 g of NaHCO3, 90 μl of NaH2PO4.2H2O (1M) and 180 μl of CaCl2 (1 M) were added in this order and dissolved, and the pH was adjusted to 7.5 with 1N HCl. This was filtered through 0.2 μm diameter filter. Per 1 ml of the resultant buffer, 2 μg of miRNA and 4 μl of CaCl2 (1 M) were mixed and incubated in a water bath at 37° C. for 30 minutes. Then, spin down was performed at 15000 rpm×5 minutes. The resultant pellet was dispersed in physiological saline (containing 0.5 wt % albumin). Accordingly, a dispersion of composite particles containing the miRNA in carbonate apatite particles was obtained. The resultant dispersion was subjected to ultrasonic vibration treatment for 10 minutes just prior to testing. Note that the ultrasonic vibration treatment was performed for 10 minutes using a water bath with an ultrasonic vibration function, in which the dispersion contained in a plastic container was floated on water set to 20° C., under conditions of high frequency output of 55 W and oscillation frequency of 38 kHz. The preparation obtained in this way was immediately used for the tests described below.
Note that it is confirmed in the measurement using a scanning probe microscope that the dispersion of ultrasonic vibration treatment includes composite particles composed of carbonate apatite nanoparticles containing the miRNA having an average particle diameter of 50 nm or less. It is also confirmed that the resultant composite particles contain about 20 μg of the miRNA per 1 mg of carbonate apatite.
The cancer stem cell population (ZsGreen+) obtained in Test Example 1 was subcutaneously injected at 5×10^5 cells to the left and right backs of 6 to 8 weeks age BALB/cA nude mice (manufactured by CLEA Japan, Inc.) to produce solid tumor model mice. When the tumor reached about 20 mm^3 in size, the mice were randomly divided into an hsa-miR-136-5p administration group (hsa-miR-136-5p), an untreated group, and a negative control group (control miRNA). In the hsa-miR-136-5p administration group, the day at which the tumor reached about 20 mm^3 in size was 0th day. On the 0th, 3rd, 5th, 7th, 10th, 12th, 14th, 17th and 19th days, carbonate apatite nanoparticles containing the hsa-miR-136-5p were intravenously injected into the tail vein at 40 μg/dose in terms of the amount of hsa-miR-136-5p. In the negative control group, carbonate apatite nanoparticles containing a control miRNA (SEQ ID NO: 9) were intravenously injected into the tail vein at the same schedule and dose as those for the miRNA136-5p administration group. In the untreated group, no drug was administered. During the test period, the tumor volume on the back of the mouse (longer diameter×shorter diameter×shorter diameter×1/2) was measured over time, and on the 24th day, the tumor was excised from the mice and observed for size, and its weight was measured.
A mouse subcutaneous solid tumor model test was conducted in the same manner as in Test Example 2 except that hsa-miR-3065-3p was used in place of hsa-miR-136-5p.
A mouse subcutaneous solid tumor model test was conducted in the same manner as in Test Example 2 except that hsa-miR-181-5p was used in place of hsa-miR-136-5p.

The subject of series [7] is human pancreatic cancer cells (PSN-1 line). Description: Antitumor effect on human pancreatic cancer cells (2), cell count after transfection. The note with it: 10 pmol/well, 48 hours, FIG. 9. Type of series: cell-based. The protocol:
as §1
As to hsa-miR-136-5p, hsa-miR-3065-3p and hsa-miR-181a-5p, evaluation was performed of the antitumor effect on human pancreatic cancer cells. The specific test method is the same as that for Test Example 4 except that a PSN-1 line was used as human pancreatic cancer cells.

The mark [8] stands for this setting: 72 hours, positive control hsa-miR-34a.
Setting [9] is: cells counted 72 hours after transfection.

“Also recorded” adds a separate entry of the source.

As for “hsa-miR-181a-5p: human-derived miR-181a-5p; base sequence set forth in SEQ ID NO: 5 as mature miRNA (AACAUUCAACGCUGUCGGUGAGU; listed as RNA, chemistry not given here; listed as Homo sapiens)”, the antitumor effect result in series [1] (setting [8]) was “much better antitumor effect than that of hsa-miR-34a; also recorded: particularly remarkable antitumor effect”; in series [3] (48 hours, positive control hsa-miR-34a), “much better antitumor effect than that of hsa-miR-34a”; in series [4] (positive control hsa-miR-34a), “much better antitumor effect than that of hsa-miR-34a; also recorded: particularly remarkable antitumor effect”; in series [5] (setting [8]), “much better antitumor effect than that of hsa-miR-34a; also recorded: particularly remarkable antitumor effect”. For the same substance, the “proliferation inhibitory effect on esophageal cancer cells” value in series [1] (setting [9]) is listed as “strong proliferation inhibitory effect”. Further, the “proliferation inhibitory effect on cancer stem cells (cell viability)” value in series [2] was “effectively suppress proliferation of cancer stem cells; also recorded: prominent proliferation inhibitory effect”. The “proliferation inhibitory effect on pancreatic cancer cells” value in series [3] (cells counted 48 hours later) and in series [7] was “strong proliferation inhibitory effect” each time. The “proliferation inhibitory effect on gastric cancer cells” value in series [4] is given as “strong proliferation inhibitory effect”. The “proliferation inhibitory effect on large bowel cancer cells” value in series [5] (setting [9]) is on record as “strong proliferation inhibitory effect”. Moreover, in series [6], the “antitumor effect as compared to the untreated group and the negative control group (control miRNA)” value is listed as “remarkably higher antitumor effect”.
